In ChEMBL document CHEMBL1125092, “Nonneurotoxic tetralin and indan analogues of 3,4-(methylenedioxy)amphetamine (MDA)” (J Med Chem, 1990):

Legend:
[1] = species on record: Rattus norvegicus; test: Compounds were evaluated for binding of [3H]paroxetine to rat brain cortical homogenate and number of binding sites (Bmax) for serotonin; type: tissue-based
[2] = Binding affinity was determined towards serotonin uptake site in presence of [3H]paroxetine radioligand in rat brain cortical homogenate; type: tissue-based
[3] = Binding affinity was determined towards serotonin uptake site in presence of [3H]paroxetine radioligand in rat hippocampal homogenate; type: tissue-based, Hippocampus
[4] = species on record: Rattus norvegicus; test: Compounds were evaluated for binding of [3H]paroxetine to rat hippocampal homogenate and number of binding sites (Bmax) for serotonin; type: tissue-based; settings: Hippocampus
[5] = tested on: Rattus norvegicus; test: Percentage of animals disrupted was determined in groups of MDMA trained rats at a dose of 3.81 (umol/kg),(no of animals = 8); type: functional
[6] = tested on: Rattus norvegicus; test: Percentage of animals disrupted was determined in groups of MDMA trained rats at a dose of 7.62 (umol/kg),(no of animals = 8); type: functional
[7] = tested on: Rattus norvegicus; test: Percentage of animals disrupted was determined in groups of MDMA trained rats at a dose of 0.95 (umol/kg),(no of animals = 8); type: functional
[8] = tested on: Rattus norvegicus; test: Percentage of animals disrupted was determined in groups of MDMA trained rats at a dose of 1.90 (umol/kg),(no of animals = 8); type: functional
[9] = tested on: Rattus norvegicus; test: Monoamine levels in at hippocampus were evaluated after subcutaneous administration of 40 mg/kg for NE; type: functional
[10] = tested on: Rattus norvegicus; test: Monoamine levels in rat brain were evaluated after subcutaneous administration of 40 mg/kg for 5-HIAA; type: functional
[11] = tested on: Rattus norvegicus; test: Monoamine levels in rat brain were evaluated after subcutaneous administration of 40 mg/kg for 5-HT; type: functional
[12] = tested on: Rattus norvegicus; test: Monoamine levels in rat brain were evaluated after subcutaneous administration of 40 mg/kg for DA; type: functional
[13] = tested on: Rattus norvegicus; test: Monoamine levels in rat brain were evaluated after subcutaneous administration of 40 mg/kg for DOPAC; type: functional
[14] = tested on: Rattus norvegicus; test: Monoamine levels in rat brain were evaluated after subcutaneous administration of 40 mg/kg for HVA; type: functional
[15] = tested on: Rattus norvegicus; test: Monoamine levels in rat hippocampus were evaluated after subcutaneous administration of 40 mg/kg for 5-HIAA; type: functional
[16] = tested on: Rattus norvegicus; test: Monoamine levels in rat hippocampus were evaluated after subcutaneous administration of 40 mg/kg for 5-HT; type: functional
[17] = tested on: Rattus norvegicus; test: Tested for stimulus generation in rats trained to discriminate MDMA from saline at a dose 1.90 (umol/kg) (number of animals = 8); type: functional
[18] = tested on: Rattus norvegicus; test: Tested for stimulus generation in rats trained to discriminate MDMA from saline at a dose 3.81 (umol/kg),(number of animals = 8); type: functional
[19] = tested on: Rattus norvegicus; test: Tested for stimulus generation in rats trained to discriminate MDMA from saline at a dose 7.62 (umol/kg),(number of animals = 8); type: functional
[20] = tested on: Rattus norvegicus; test: Monoamine levels in rat brain were evaluated after subcutaneous administration of 40 mg/kg for NE; type: functional
[21] = tested on: Rattus norvegicus; test: Hallucinogenic property was determined in groups of LSD trained rats and percentage of animals disrupted was reported at a dose 3.88 (umol/kg),(number of animals = 10); type: functional
[22] = tested on: Rattus norvegicus; test: Percentage of animals disrupted was determined in groups of LSD trained rats at a dose of 10.67 (umol/kg),(no of animals = 5); type: functional
[23] = tested on: Rattus norvegicus; test: Hallucinogenic property was determined in groups of LSD trained rats and percentage of animals disrupted was reported at a dose 9.70 (umol/kg),(number of animals = 13); type: functional
[24] = tested on: Rattus norvegicus; test: Hallucinogenic property was determined in groups of MDMA trained rats and percentage of animals disrupted was reported at a dose 11.64 (umol/kg),(number of animals = 6); type: functional
[25] = tested on: Rattus norvegicus; test: Hallucinogenic property was determined in groups of MDMA trained rats and percentage of animals disrupted was reported at a dose 3.88 (umol/kg),(number of animals = 11); type: functional
[26] = tested on: Rattus norvegicus; test: Hallucinogenic property was determined in groups of MDMA trained rats and percentage of animals disrupted was reported at a dose 7.76 (umol/kg),(number of animals = 11); type: functional
[27] = tested on: Rattus norvegicus; test: Hallucinogenic property was determined in groups of LSD trained rats and percentage of animals disrupted was reported at a dose 7.77 (umol/kg),(number of animals = 15); type: functional
[28] = tested on: Rattus norvegicus; test: Hallucinogenic property was determined in groups of LSD trained rats and percentage of animals disrupted was reported at 5.82 (umol/kg),(number of animals = 11); type: functional
[29] = tested on: Rattus norvegicus; test: Percentage of animals disrupted was determined in groups of MDMA trained rats at a dose 1.94 (umol/kg),(no of animals=10); type: functional
[30] = tested on: Rattus norvegicus; test: Tested for stimulus generation in rats trained to discriminate LSD from saline at a dose 3.88 (umol/kg),(number of animals = 10); type: functional
[31] = tested on: Rattus norvegicus; test: Tested for stimulus generation in rats trained to discriminate +/-MDMA from saline at 3.88 (umol/kg),(number of animals = 11); type: functional
[32] = tested on: Rattus norvegicus; test: Tested for stimulus generation in rats trained to discriminate +/-MDMA from saline at 1.94 (umol/kg),(number of animals = 10); type: functional
[33] = tested on: Rattus norvegicus; test: Tested for stimulus generation in rats trained to discriminate +/-MDMA from saline at 7.76 (umol/kg),(number of animals = 11); type: functional
[34] = tested on: Rattus norvegicus; test: Tested for stimulus generation in rats trained to discriminate LSD from saline at a dose 5.82 (umol/kg),(number of animals = 11); type: functional
[35] = tested on: Rattus norvegicus; test: Tested for stimulus generation in rats trained to discriminate LSD from saline at a dose 7.77 (umol/kg),(number of animals = 15); type: functional
[36] = tested on: Rattus norvegicus; test: Tested for stimulus generation in rats trained to discriminate LSD from saline at a dose 9.70 (umol/kg),(number of animals = 13); type: functional
[37] = tested on: Rattus norvegicus; test: Hallucinogenic property was determined in groups of LSD trained rats and percentage of animals disrupted was reported at a dose 4.39 (umol/kg),(number of animals = 12); type: functional
[38] = tested on: Rattus norvegicus; test: Hallucinogenic property was determined in groups of LSD trained rats and percentage of animals disrupted was reported at a dose 0.55 (umol/kg),(number of animals = 9); type: functional
[39] = tested on: Rattus norvegicus; test: Hallucinogenic property was determined in groups of LSD trained rats and percentage of animals disrupted was reported at a dose 2.2 (umol/kg),(number of animals = 8); type: functional
[40] = tested on: Rattus norvegicus; test: Hallucinogenic property was determined in groups of LSD trained rats and percentage of animals disrupted was reported at a dose 2.74 (umol/kg),(number of animals = 8); type: functional
[41] = tested on: Rattus norvegicus; test: Hallucinogenic property was determined in groups of LSD trained rats and percentage of animals disrupted was reported at a dose 8.78 (umol/kg),(number of animals = 11); type: functional
[42] = tested on: Rattus norvegicus; test: Hallucinogenic property was determined in groups of MDMA trained rats and percentage of animals disrupted was reported at 8.78 (umol/kg),(number of animals = 12; type: functional
[43] = tested on: Rattus norvegicus; test: Hallucinogenic property was determined in groups of MDMA trained rats and percentage of animals disrupted was reported at a dose 1.1 (umol/kg),(number of animals = 8; type: functional
[44] = tested on: Rattus norvegicus; test: Hallucinogenic property was determined in groups of MDMA trained rats and percentage of animals disrupted was reported at a dose 2.2 (umol/kg),(number of animals = 11; type: functional
[45] = tested on: Rattus norvegicus; test: Hallucinogenic property was determined in groups of MDMA trained rats and percentage of animals disrupted was reported at a dose 2.74 umol/kg),(number of animals = 12; type: functional
[46] = tested on: Rattus norvegicus; test: Hallucinogenic property was determined in groups of MDMA trained rats and percentage of animals disrupted was reported at a dose 3.29 (umol/kg),(number of animals =10; type: functional
[47] = tested on: Rattus norvegicus; test: Hallucinogenic property was determined in groups of MDMA trained rats and percentage of animals disrupted was reported at a dose 4.39 (umol/kg),(number of animals = 9); type: functional
[48] = tested on: Rattus norvegicus; test: Hallucinogenic property was determined in groups of MDMA trained rats and percentage of animals disrupted was reported at a dose 6.59 (umol/kg),(number of animals = 9; type: functional
[49] = tested on: Rattus norvegicus; test: Hallucinogenic property was determined in groups of MDMA trained rats and percentage of animals disrupted was reported at a dose 7.69 (umol/kg),(number of animals = 12); type: functional
[50] = tested on: Rattus norvegicus; test: Hallucinogenic property was determined in groups of MDMA trained rats and percentage of animals selecting drug lever was reported at 13.18 (umol/kg),(number of animals = 5; type: functional
[51] = tested on: Rattus norvegicus; test: Hallucinogenic property was determined in groups of LSD trained rats and percentage of animals disrupted was reported at a dose 6.59 (umol/kg),(number of animals = 15); type: functional
[52] = tested on: Rattus norvegicus; test: Hallucinogenic property was determined in groups of LSD trained rats and percentage of animals disrupted was reported at 1.10 (umol/kg),(number of animals = 9); type: functional
[53] = tested on: Rattus norvegicus; test: Tested for stimulus generation in rats trained to discriminate LSD from saline at a dose 0.55 (umol/kg),(number of animals = 9); type: functional
[54] = tested on: Rattus norvegicus; test: Tested for stimulus generation in rats trained to discriminate LSD from saline at a dose 1.10 (umol/kg),(number of animals = 9); type: functional
[55] = tested on: Rattus norvegicus; test: Tested for stimulus generation in rats trained to discriminate LSD from saline at a dose 2.74 (umol/kg),(number of animals = 8); type: functional
[56] = tested on: Rattus norvegicus; test: Tested for stimulus generation in rats trained to discriminate LSD from saline at 2.2 (umol/kg),(number of animals = 8); type: functional
[57] = tested on: Rattus norvegicus; test: Tested for stimulus generation in rats trained to discriminate +/-MDMA from saline at 1.10 (umol/kg),(number of animals = 8); type: functional
[58] = tested on: Rattus norvegicus; test: Tested for stimulus generation in rats trained to discriminate +/-MDMA from saline at 6.59 (umol/kg),(number of animals = 9); type: functional
[59] = tested on: Rattus norvegicus; test: Tested for stimulus generation in rats trained to discriminate +/-MDMA from saline at 7.69 (umol/kg),(number of animals = 12); type: functional
[60] = tested on: Rattus norvegicus; test: Tested for stimulus generation in rats trained to discriminate +/-MDMA from saline at 8.78 (umol/kg),(number of animals = 12); type: functional
[61] = tested on: Rattus norvegicus; test: Tested for disruption in more than 50% rats trained to discriminate LSD from saline at a dose 8.78(uM/kg) (no. of animals =11); type: functional
[62] = tested on: Rattus norvegicus; test: Tested for stimulus generation in rats trained to discriminate LSD from saline at a dose 6.59 (umol/kg),(number of animals = 15); type: functional
[63] = tested on: Rattus norvegicus; test: Tested for stimulus generation in rats trained to discriminate +/-MDMA from saline at 2.2 (umol/kg),(number of animals = 11); type: functional
[64] = tested on: Rattus norvegicus; test: Tested for stimulus generation in rats trained to discriminate +/-MDMA from saline at 2.74 (umol/kg),(number of animals = 12); type: functional
[65] = tested on: Rattus norvegicus; test: Tested for stimulus generation in rats trained to discriminate +/-MDMA from saline at 3.29 (umol/kg),(number of animals = 10); type: functional
[66] = tested on: Rattus norvegicus; test: Tested for stimulus generation in rats trained to discriminate +/-MDMA from saline at 4.39 (umol/kg),(number of animals = 9); type: functional
[67] = tested on: Rattus norvegicus; test: Tested for stimulus generation in rats trained to discriminate LSD from saline at a dose 4.39 (umol/kg),(number of animals = 12); type: functional

## CNC(C)Cc1ccc2c(c1)OCO2 (configuration not stated) [MIDOMAFETAMINE]
[1]
  Bmax: < 643 fM/g
[2]
  Kd: 0.123 nM
[3]
  Kd: 0.195 nM
[4]
  Bmax: < 348 fM/g
[5]
  D: 0%
[6]
  D: 0%
[7]
  D: 0%
[8]
  D: 0%
[9]
  Monoamine level: 429 pg/mg
[10]
  Monoamine level: <230 pg/mg
[11]
  Monoamine level: <161 pg/mg
[12]
  Monoamine level: 151 pg/mg
[13]
  Monoamine level: 212 pg/mg
[14]
  Monoamine level: 318 pg/mg
[15]
  Monoamine level: <256 pg/mg
[16]
  Monoamine level: <105 pg/mg
[17]
  SDL: 25%
[18]
  SDL: 75%
[19]
  SDL: 100%
[20]
  Monoamine level: 375 pg/mg

## COc1cc(C)c(OC)c2c1CC(N)CC2 (configuration not stated)
[21]
  D: 20%
[22]
  D: 100%
[23]
  D: 69%
[24]
  D: 83%
[25]
  D: 27%
[26]
  D: 27%
[27]
  D: 47%
[28]
  D: 27%
[29]
  D: 20%
[30]
  SDL: 25%
[31]
  SDL: 50%
[32]
  SDL: 38%
[33]
  SDL: 38%
[34]
  SDL: 38%
[35]
  SDL: 13%
[36]
  SDL: 0%

## NC1CCc2c(ccc3c2OCO3)C1 (configuration not stated)
[37]
  D: 33%
[38]
  D: 11%
[39]
  D: 0%
[40]
  D: 0%
[41]
  D: 55%
[42]
  D: 42%
[43]
  D: 38%
[44]
  D: 27%
[45]
  D: 33%
[46]
  D: 20%
[47]
  D: 11%
[48]
  D: 11%
[49]
  D: 33%
[50]
  D: 100%
[51]
  D: 47%
[52]
  D: 11%
[53]
  SDL: 0%
[54]
  SDL: 13%
[55]
  SDL: 25%
[56]
  SDL: 25%
[57]
  SDL: 0%
[58]
  SDL: 75%
[59]
  SDL: 75%
[60]
  SDL: 71%
[61]
  SDL: 71%
[62]
  SDL: 38%
[63]
  SDL: 63%
[64]
  SDL: 63%
[65]
  SDL: 63%
[66]
  SDL: 50%
[67]
  SDL: 25%
